Drawing on ChEMBL document CHEMBL1137755, “[35S]GTP gamma S binding studies of amphiphilic drugs-activated Gi proteins: a caveat” (Bioorg Med Chem Lett, 2009), this text covers Activity and CMC for 33 compounds.

In series [1] the target is Guanine nucleotide-binding protein G(i) subunit alpha-1 (Homo sapiens) (UniProt P63096). Kind of series: Activation of human Gi protein alpha1 subunit expressed in Escherichia coli assessed as protein bound [35S]GTPgammaS levels at 5 uM by scintillation spectroscopy. In kind it is functional. In general terms: GTPγS resists hydrolysis and so accumulates on activated G proteins.

The target is the same in series [2]. Kind of series: Activation of human Gi protein alpha1 subunit expressed in Escherichia coli assessed as protein bound [35S]GTPgammaS levels at 1 uM by scintillation spectroscopy. Type of series: functional.
For series [3] the target is unchanged. Kind of series: Activation of human Gi protein alpha1 subunit expressed in Escherichia coli assessed as protein bound [35S]GTPgammaS levels at 10 uM by scintillation spectroscopy relative to basal. In kind it is functional.
For series [4] the target is unchanged. As to the kind of experiment: Activation of human Gi protein alpha1 subunit expressed in Escherichia coli assessed as protein bound [35S]GTPgammaS levels at 10 uM by scintillation spectroscopy. Type of series: functional.
The target is the same in series [5]. As to the kind of experiment: Activation of human Gi protein alpha1 subunit expressed in Escherichia coli assessed as protein bound [35S]GTPgammaS levels at 50 uM by scintillation spectroscopy. In kind it is functional.
For series [6] the target is unchanged. As to the kind of experiment: Activation of human Gi protein alpha1 subunit expressed in Escherichia coli assessed as protein bound [35S]GTPgammaS levels by scintillation spectroscopy. In kind it is functional.
Series [7] can be described thus: Critical micelle concentration by drop-shape analysis. Type of series: physicochemical.
Series [8] has as its target Guanine nucleotide-binding protein G(o) subunit alpha (Homo sapiens) (UniProt P09471). As to the kind of experiment: Activation of human Go protein alpha subunit expressed in Escherichia coli assessed as protein bound [35S]GTPgammaS levels at 100 uM by scintillation spectroscopy. Type of series: functional.
For series [9] the target is unchanged. Kind of series: Activation of human Go protein alpha subunit expressed in Escherichia coli assessed as protein bound [35S]GTPgammaS levels at 50 uM by scintillation spectroscopy. Type of series: functional.
Series [10] shares this target. Kind of series: Activation of human Go protein alpha subunit expressed in Escherichia coli assessed as protein bound [35S]GTPgammaS levels at 5 uM by scintillation spectroscopy. In kind it is functional.
The target is the same in series [11]. As to the kind of experiment: Activation of human Go protein alpha subunit expressed in Escherichia coli assessed as protein bound [35S]GTPgammaS levels at 10 uM by scintillation spectroscopy relative to basal. In kind it is functional.
Series [12] concerns the target Guanine nucleotide-binding protein G(i) subunit alpha-1 (Homo sapiens) (UniProt P63096). Kind of series: Activation of human Gi protein alpha1 subunit expressed in Escherichia coli assessed as protein bound [35S]GTPgammaS levels at 100 uM by scintillation spectroscopy. In kind it is functional.
Series [13] addresses Guanine nucleotide-binding protein G(o) subunit alpha (Homo sapiens) (UniProt P09471). Kind of series: Activation of human Go protein alpha subunit expressed in Escherichia coli assessed as protein bound [35S]GTPgammaS levels at 1 uM by scintillation spectroscopy. Type of series: functional.
For series [14] the target is unchanged. As to the kind of experiment: Activation of human Go protein alpha subunit expressed in Escherichia coli assessed as protein bound [35S]GTPgammaS levels at 10 uM by scintillation spectroscopy. Type of series: functional.

Activity calls are given as the source filed them. The rule behind the calls is not given here.

Chain of Guanine nucleotide-binding protein G(i) subunit alpha-1 (Homo sapiens) (P63096 whole entry): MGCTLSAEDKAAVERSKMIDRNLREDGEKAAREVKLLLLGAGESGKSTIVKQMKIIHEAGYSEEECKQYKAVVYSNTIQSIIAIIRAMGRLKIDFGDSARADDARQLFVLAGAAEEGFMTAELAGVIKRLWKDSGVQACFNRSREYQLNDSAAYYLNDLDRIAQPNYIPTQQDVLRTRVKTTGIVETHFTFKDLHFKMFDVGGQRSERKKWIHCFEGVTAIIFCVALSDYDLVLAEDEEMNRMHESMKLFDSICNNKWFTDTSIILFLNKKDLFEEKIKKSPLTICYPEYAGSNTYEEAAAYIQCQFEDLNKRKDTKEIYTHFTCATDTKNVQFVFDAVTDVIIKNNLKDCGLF
Chain of Guanine nucleotide-binding protein G(o) subunit alpha (Homo sapiens) (P09471 2-354 limits assumed): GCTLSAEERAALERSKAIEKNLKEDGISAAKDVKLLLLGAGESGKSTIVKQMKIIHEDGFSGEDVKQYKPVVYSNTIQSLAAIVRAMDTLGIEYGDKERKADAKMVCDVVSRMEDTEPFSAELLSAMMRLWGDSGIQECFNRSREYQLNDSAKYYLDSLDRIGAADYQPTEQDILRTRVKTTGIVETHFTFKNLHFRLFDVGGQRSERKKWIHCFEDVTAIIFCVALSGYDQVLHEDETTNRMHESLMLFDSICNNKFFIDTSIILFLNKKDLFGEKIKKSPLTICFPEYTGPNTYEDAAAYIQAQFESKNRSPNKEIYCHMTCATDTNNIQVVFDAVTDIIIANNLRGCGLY

As to `CCCCCCCCCCCCCCC(=O)N1CCC(C2CCN(CCN)CC2)CC1`, the Activity in series [1] was found to be 76.2 fmol; in series [2], 30.3 fmol; in series [3] it was 877%; in series [4] it was 87 fmol; in [5], 103 fmol.
In the case of `CCCCCCCCCCCCCCCNC1CCN(CCNC(=O)[C@@H](N)CCCCN)CC1`, the outcome in series [6] was Active.
With `CCOCCOCCOCCNCC1CCNCC1`, the outcome in series [6] was inactive.
Same read-out and setting: the entry for `CCCCCCCN1CCC(C2CCNCC2)CC1` is “inactive”; for `c1ccc(CCCCNN2CCNCC2)cc1` it is “inactive”.
Same read-out and setting: the same measure for `CCCCCNC1CCNCC1`: “inactive”; for `CCOCCOCCOCCN1CCC(C2CCNCC2)CC1`: “inactive”.
`CCCCCCCCCCCCCCCNCC1CCN(CCNC=O)CC1`: the Activity worked out at 69.1 fmol in series [1]; 8.9 fmol in series [2]; 1170% in [3]; 113 fmol in series [4]; 980 fmol in series [5].
As for `CCCCCCCCCCCCCCCNC1CCN(C(=O)[C@@H](N)CCCCN)CC1`, the result in series [6] was Active.
Consider `CCCCCCCCCCCCCCCNC1CCNCC1`, for which the Activity was found to be 49.5 fmol in [1]; 15.4 fmol in [2]; 693% in [3]; 1420 fmol in series [8]; 1400 fmol in series [9]; 70.6 fmol in series [4]. Besides, the Activity in [5] was found to be 196 fmol; in series [10] it was 363 fmol; in series [11] it was 668%; in series [12] it was 195 fmol; in series [13], 102 fmol; in series [14], 636 fmol. In [7], the CMC amounted to 1.44 ×10⁻⁴ M.
For `CCCCCCCNN1CCNCC1`, in [6], the outcome was inactive.
Regarding `CCOCCOCCOCCOCCOCCN1CCC(C2CCNCC2)CC1`, the result in [6] was inactive.
The same measure, in the same setting: the same measure for `CCCCCCCCCCCCCCCN1CCC(C2CCN(C(=O)[C@@H](N)CCCCN)CC2)CC1`: “Active”.
`CCCCCCCCCCCCCCCN1CCC(C2CCN(CCN)CC2)CC1`: the Activity in series [1] amounted to 78.7 fmol; in series [2], 11.6 fmol; in [3], 2550%; in [4] it was 234 fmol; in series [5], 2300 fmol.
`CCOCCOCCOCCOCCOCCNC1CCNCC1`: the result in [6] was inactive.
Regarding `CCCCCCCCCCCCCCCN1CCC(NC(=O)[C@@H](N)CCCCN)CC1`, the Activity in series [1] was 103 fmol; in series [2], 23.7 fmol; in [3], 1660%; in series [4] it was 157 fmol; in series [5], 185 fmol.
As for `CCCCCCCCCCCCCCCNC1CCN(CCN)CC1`, in series [7], the CMC stood at 1 ×10⁻⁴ M. In addition, the outcome in series [6] was Active.
Take `CCCCCCCNC1CCNCC1`: the result in series [6] was inactive.
On to `CCCCCN1CCC(C2CCNCC2)CC1`, for which, in [6], the result was inactive.
As to `CCCCCNN1CCNCC1`, the outcome in series [6] was inactive.
On the same count and under the same terms, the entry for `CCCCCCCCCNC1CCNCC1` is “inactive”; for `CCCCCCCCCN1CCC(C2CCNCC2)CC1` it is “inactive”; for `c1ccc(CCCCNC2CCNCC2)cc1` it is “inactive”.
`CCOCCOCCOCCOCCN1CCC(C2CCNCC2)CC1`: the result in [6] was inactive.
Consider `c1ccc(CCCCN2CCC(C3CCNCC3)CC2)cc1`, for which the result in [6] was inactive.
With `CCCCCCCCCCCCCCCN1CCC(C2CCN(CCNC(=O)[C@@H](N)CCCCN)CC2)CC1`, the Activity in [1] amounted to 33.3 fmol; in series [2] it was 19.9 fmol; in series [3] it was 2990%; in series [4] it was 275 fmol; in series [5], 781 fmol. In series [7], the CMC is 1.41 ×10⁻⁴ M.
On to `CCOCCOCCOCCNC1CCNCC1`, for which, in series [6], the result was inactive.
On to `CCCCCCCCCNN1CCNCC1`, for which the result in [6] was inactive.
Turning to `c1ccc(CCCCNCC2CCNCC2)cc1`, in series [6], the result was inactive.
Turning to `CCCCCCCCCCCCCCC(=O)N1CCC(C2CCN(C(=O)[C@@H](N)CCCCN)CC2)CC1`, the result in series [6] was Active.
On to `CCOCCOCCOCCOCCNC1CCNCC1`, for which the result in series [6] was inactive.
`CCOCCOCCOCCNN1CCNCC1`: the result in series [6] was inactive.
Consider `CCCCCNCC1CCNCC1`, for which the result in series [6] was inactive.
